According to US6346390B1, “Receptor derived peptides involved in modulation of response to ligand binding” (Receptron, Inc., priority 1996, dated 2002):

Tests used:
rat adipose cells = test: Glucose transport in adipose cells; type: cell-based
Protocol: The biological activity of the peptides were measured by their effect on glucose uptake in rat adipose cells as described (Stagsted et al. (1991) J. Biol. Chem. 266:12844-12847). Briefly, rat adipose cells were obtained from epididymal fat pads and suspended in Krebs-Ringer HEPES buffer (KRH) with 5% bovine serum albumin at a lipocrit of 10% (final). […] Most of the peptides were not tested at higher concentrations than 30 μM.

human insulin receptor = target: T1, human insulin receptor (Homo sapiens, UniProt P06213); test: Insulin receptor internalization in transfected HeLa cells; type: cell-based; conditions: for effect on insulin receptor internalization (in words): transfected cells, 10 μM peptide
T1 construct: expressed in transfected cells; host or cells: HeLa cells, electroporated; pCR3 expression vector (Invitrogen, catalog no. K3000-01)
Protocol: Insulin Receptor modification and expression. […] K3000-01) was transfected by electroporation into HeLa cells. Methods of electroporation are described in Boggs et al. (1986) Ex. Hematol. 149:988-994. In the transfected cells the receptors show insulin dependent internalization.
Receptor internalization was performed essentially as described in Stagsted et al. (1990) Cell 62:297-307. […] The cells were then diluted with 50 μl of KRHB (pH7.2) (no acid wash) or 50 μl of KRHB (pH 2.0) (acid wash) and incubated on ice for 5 min. The cells were finally harvested by centrifugation on top of silicone oil, and both free and cell-associated radioactivity was measured.

Q: With “GNEQSFRVDLRTLLRYAGGGNEQSFRVDLRTLLRYA [DS-A85]” as the substance, how does the “enhancement of glucose uptake” value (rat adipose cells; insulin + 10 μM peptide (insulin alone 14±3 fold)) read?
A: The value was 22±4 fold.

Q: For “KTDSQILKELEESSFRKTFEDYLH [pepIR, human insulin receptor derived peptide]”, which “effect on insulin receptor internalization (in words)” value (human insulin receptor) is on record?
A: The value was “inhibits receptor internalization to the same extent as DS-A85”.

Q: And the “effect on glucose uptake (in words)” value (rat adipose cells; at maximal insulin stimulation)?
A: The value was “did not significantly affect glucose uptake”.

Q: Which “per cent internalized receptor” value (human insulin receptor; in the presence of 10 μM peptide, time not stated, in the absence of peptide 64±7) does the source give for TWLGRQGPEGPSSIPPGTLTTLW [GLUT4pep] here?
A: The value was 6±9 per cent.

Q: What about the “effect on insulin receptor internalization (in words)” value (human insulin receptor) of the same substance?
A: Its value is “does not affect insulin receptor internalization”.

Q: For insulin, which “enhancement of glucose uptake” value (rat adipose cells; 10 nM insulin alone) is on record?
A: The value was 12±4 fold.

Q: What about the “enhancement of glucose uptake” value (rat adipose cells; 10 μM insulin alone) of the same substance?
A: Its value is 14±3 fold.
